Calls of active or inactive are those of the source. The rule behind the calls is not given here.
Columns and labels:
[1] = biological target: Replicase polyprotein 1ab (Severe acute respiratory syndrome coronavirus 2) (UniProt P0DTD1); assay: Inhibition of SARS-CoV-2 RdRp in HEK-293T cells at 10 uM measured after 24 hrs relative to control; type: cell-based
[2] = system: SARS-CoV-2; assay: Antiviral activity against SARS-CoV-2 C-Tan-n-CoV Wuhan infected in African green monkey Vero E6 cells assessed as inhibition of viral replication incubated for 24 hrs by qRT-PCR analysis; type: functional, organism-based; settings: Severe acute respiratory syndrome coronavirus 2, C-Tan-n-CoV Wuhan, Vero C1008, 24 h
[3] = system: Human coronavirus OC43; assay: Antiviral activity against HCoV-OC43 infected in human HCT-8 cells at a MOI of 0.1 assessed as inhibition of viral replication measured after 5 days by MTS assay; type: functional, organism-based; settings: Betacoronavirus 1, HCT-8, 120 h
[4] = system: Human coronavirus NL63; assay: Antiviral activity against HCoV-NL63 infected in Rhesus monkey LLC-MK2 cells at a MOI of 0.01 assessed as inhibition of viral replication measured after 120 hrs by MTS assay; type: functional, organism-based; settings: Human coronavirus NL63, LLC-MK2, 120 h
[5] = Antiviral activity against SARS-CoV-2 infected in HEK293T cells assessed as inhibition of SARS-CoV-2 RdRp in the presence of coelenterazine-h incubated for 24 hrs by Gaussia luciferase reporter assay; type: functional, cell-based; settings: Homo sapiens, HEK-293T
[6] = Cytotoxicity against HEK293T cells assessed as inhibition of cell growth measured after 48 hrs by CCK8 assay; type: toxicity, cell-based, HEK-293T; settings: human
[7] = Selectivity index, ratio of CC50 for cytotoxicity against HEK293T cells assessed as inhibition of cell growth to EC50 for antiviral activity against SARS-CoV-2 infected in HEK293T cells assessed as inhibition of SARS-CoV-2 RdRp; type: toxicity, cell-based; settings: human, read-out: Ratio CC50/EC50
[8] = biological target: Replicase polyprotein 1ab (Severe acute respiratory syndrome coronavirus 2) (UniProt P0DTD1); assay: (§1) Inhibition of SARS-CoV-2 RdRp mediated RNA synthesis in HEK-293T cells cotransfected with pCoV-GLuc and pCMV6-nsp12/nsp7/nsp8 assessed as reduction in plus strand RNA level by measuring GLuc RNA level for 24 hrs in the presence of coelenterazine-h by Gaussia luciferase reporter assay; type: cell-based; settings: dose 2-10 µM
[9] = biological target: Replicase polyprotein 1ab (Severe acute respiratory syndrome coronavirus 2) (UniProt P0DTD1); assay: (§2) Inhibition of SARS-CoV-2 RdRp mediated RNA synthesis in HEK-293T cells cotransfected with pCoV-GLuc and pCMV6-nsp12/nsp7/nsp8 assessed as reduction in minus strand RNA level by measuring GLuc RNA level for 24 hrs in the presence of coelenterazine-h by Gaussia luciferase reporter assay; type: cell-based; settings: dose 2-10 µM
[10] = biological target: Replicase polyprotein 1ab (Severe acute respiratory syndrome coronavirus 2) (UniProt P0DTD1); assay: as §1, with “RNA level at 10 uM by measuring” for “RNA level by measuring”, “reporter assay relative to control” for “reporter assay”; type: cell-based
[11] = biological target: T1, Replicase polyprotein 1ab (Severe acute respiratory syndrome coronavirus 2, UniProt P0DTD1); assay: Inhibition of SARS-CoV-2 nsp14 in HEK-293T cells cotransfected with pCoV-GLuc incubated for 24 hrs in the presence of coelenterazine-h by Gaussia luciferase reporter assay; type: cell-based
[12] = biological target: T1, Replicase polyprotein 1ab; assay: Inhibition of his tagged SARS-CoV-2 nsp12 in HEK-293T cells cotransfected with pCoV-GLuc incubated for 24 hrs in the presence of coelenterazine-h by Gaussia luciferase reporter assay; type: cell-based
[13] = biological target: T1, Replicase polyprotein 1ab; assay: Binding affinity to SARS-CoV-2 nsp12 expressed in Escherichia coli BL21 (DE3) cells using biotinylated EZ-link NHS-LC-LC assessed as dissociation constant incubated for 180 sec by BLI assay
[14] = biological target: T1, Replicase polyprotein 1ab; assay: Binding affinity to SARS-CoV-2 nsp12 expressed in Escherichia coli BL21 (DE3) cells using biotinylated EZ-link NHS-LC-LC assessed as dissociation constant at 6.25 to 100 uM incubated for 180 sec by BLI assay
[15] = Cytotoxicity against human HCT-8 cells incubated for 48 hrs by CCK8 method; type: toxicity, cell-based
[16] = Cytotoxicity against Rhesus monkey LLC-MK2 cells incubated for 48 hrs by method; type: toxicity, cell-based, Macaca mulatta
[17] = system: Human coronavirus OC43; assay: Antiviral activity against HCoV-OC43 infected in golden hamster BHK-21 cells assessed as inhibition of viral infection at 10 uM measured after 24 hrs by luciferase assay; type: functional, organism-based
[18] = system: Human coronavirus OC43; assay: Antiviral activity against HCoV-OC43(Rluc) infected in golden hamster BHK-21 cells assessed as inhibition of viral replication at 10 uM pre-infected with virus for 1 hrs followed by compound addition and measured after 24 hrs by luciferase assay; type: functional, organism-based
[19] = system: Human coronavirus OC43; assay: Antiviral activity against HCoV-OC43(Rluc) infected in BHK-21 cells assessed as inhibition of viral infection at 10 uM pre-infected with virus for 2 hrs followed by compound addition measured after 24 hrs by luciferase assay; type: functional, organism-based
[20] = biological target: Replicase polyprotein 1ab (Severe acute respiratory syndrome coronavirus 2) (UniProt P0DTD1); assay: Inhibition of SARS-CoV-2 3CLpro in HEK293T cells at 2 to 20 uM measured after 48 hrs by Western blot analysis; type: cell-based; settings: dose 2-20 µM
[21] = biological target: Replicase polyprotein 1ab (Severe acute respiratory syndrome coronavirus 2) (UniProt P0DTD1); assay: as §2, with “RNA level at 10 uM by measuring” for “RNA level by measuring”, “reporter assay relative to control” for “reporter assay”; type: cell-based
[22] = system: Human coronavirus OC43; assay: Potency index, ratio of PAP EC50 to test compound EC50 for antiviral activity against HCoV-OC43 infected in human HCT-8 cells assessed as reduction in virus-induced cytopathic effect measured after 120 hrs by MTS assay; type: functional
[23] = system: Human coronavirus NL63; assay: Potency index, ratio of PAP EC50 to test compound EC50 for antiviral activity against HCoV-NL63 infected in Rhesus monkey LLC-MK2 cells assessed as reduction in viru-induced cytopathic effect measured after 120 hrs by MTS assay; type: functional

Compound	inhibition [1]	EC50 [5]	CC50 at 48 h [6]	other results
Cc1cc(N)nc(N)c1/N=N/c1ccccc1	49.9%	–	–	–
Cl.Nc1ccc(/N=N/c2ccccc2)c(N)n1 [PHENAZOPYRIDINE HYDROCHLORIDE]	50%	7.37 µM	> 100 µM	EC50 [2]: 5.37 µM; EC50 [3]: 4.69 µM; EC50 [4]: 5.52 µM; selectivity ratio [7]: > 13.6; inhibition [8]: Dose-dependent-effect; inhibition [9]: Dose-dependent-effect; inhibition [10]: 90%; EC50 [11]: 8.01 µM; EC50 [12]: 7.37 µM; Kd [13]: Dose-dependent-effect; Kd [14]: 5 µM; CC50 at 48 h [15]: > 100 µM; CC50 at 48 h [16]: > 100 µM; inhibition [17]: Active; inhibition [18]: Active; Minor Effects Was Observed; inhibition [19]: Active; inhibition [20]: inactive
CC(C)(C)OC(=O)N1CCC[C@H]1C(=O)Nc1nc(N)ccc1/N=N/c1ccccc1	88.5%	1.11 µM	> 100 µM	EC50 [3]: 1.43 µM; EC50 [4]: 2.99 µM; selectivity ratio [7]: 6.64; inhibition [8]: Dose-dependent-effect; inhibition [9]: Dose-dependent-effect; inhibition [21]: 90%; EC50 [11]: 1.36 µM; EC50 [12]: 1.11 µM; Kd [13]: Dose-dependent-effect; Kd [14]: 2.41 µM; CC50 at 48 h [15]: > 100 µM; CC50 at 48 h [16]: > 100 µM; Ratio EC50 [22]: 3.28; Ratio EC50 [23]: 1.85
Nc1ccc(/N=N/c2ccc(Cl)cc2)c(N)n1	64.5%	7.64 µM	> 100 µM	–
Nc1cc(Br)c(/N=N/c2ccccc2)c(N)n1	41.9%	–	–	–
CSCC[C@H](NC(=O)OC(C)(C)C)C(=O)Nc1nc(N)ccc1/N=N/c1ccccc1	83%	1.33 µM	> 100 µM	selectivity ratio [7]: 75.2; inhibition [8]: Dose-dependent-effect; inhibition [9]: Dose-dependent-effect; EC50 [11]: 1.38 µM; EC50 [12]: 1.33 µM
Nc1ccc(/N=N/c2ccccc2)c(NC(=O)[C@@H](N)Cc2c[nH]c3ccccc23)n1	82.7%	1.64 µM	81.9 µM	selectivity ratio [7]: 50; inhibition [8]: Dose-dependent-effect; inhibition [9]: Dose-dependent-effect; EC50 [11]: 1.53 µM; EC50 [12]: 1.64 µM
CC(C)(C)OC(=O)NCC(=O)Nc1nc(N)ccc1/N=N/c1ccccc1	77.4%	1.7 µM	> 100 µM	–
Nc1ccc(/N=N/c2ccc(Br)cc2)c(N)n1	71.8%	8.61 µM	> 100 µM	–
CC(C)(C)OC(=O)N[C@@H](Cc1c[nH]c2ccccc12)C(=O)Nc1nc(N)ccc1/N=N/c1ccccc1	79.8%	3.79 µM	79.2 µM	–
Nc1ccc(/N=N/c2ccc(Cc3ccccc3)cc2)c(N)n1	59.3%	6.47 µM	> 100 µM	–
Nc1ccc(/N=N/c2ccc([N+](=O)[O-])cc2)c(N)n1	45.8%	–	–	–
Cc1ccc(/N=N/c2ccc(N)nc2N)cc1	59.1%	8.59 µM	> 100 µM	–
Nc1cc(-c2ccccc2)c(/N=N/c2ccccc2)c(N)n1	65.6%	8.26 µM	> 100 µM	–
C[C@H](N)C(=O)Nc1nc(N)ccc1/N=N/c1ccccc1	48.2%	–	–	–
Nc1ccc(/N=N/c2ccc(C(F)(F)F)cc2)c(N)n1	74.9%	6.32 µM	> 100 µM	–

Compound	inhibition [1]	EC50 [5]	CC50 at 48 h [6]	other results
COc1ccc(/N=N/c2ccc(N)nc2N)cc1	48%	–	–	–
Nc1nc(N)c(/N=N/c2ccccc2)cc1/N=N/c1ccccc1	46%	–	–	–
CSCC[C@H](N)C(=O)Nc1nc(N)ccc1/N=N/c1ccccc1	55.3%	7.26 µM	> 100 µM	–
CCC(CC)COC(=O)[C@H](C)N[P@](=O)(OC[C@H]1O[C@@](C#N)(c2ccc3c(N)ncnn23)[C@H](O)[C@@H]1O)Oc1ccccc1	–	–	> 100 µM	EC50 [3]: 1.89 µM; EC50 [4]: 2.67 µM; inhibition [8]: Dose-dependent-effect; inhibition [9]: Dose-dependent-effect; inhibition [10]: 80%; inhibition [21]: 80%; CC50 at 48 h [15]: > 100 µM; CC50 at 48 h [16]: > 100 µM
Oc1ccc(/N=N/c2ccccc2)cc1	45.4%	–	–	–
CC(C)(C)OC(=O)N[C@@H](Cc1ccccc1)C(=O)Nc1nc(N)ccc1/N=N/c1ccccc1	79.8%	2.64 µM	> 100 µM	–
C[C@H](NC(=O)OC(C)(C)C)C(=O)Nc1nc(N)ccc1/N=N/c1ccccc1	86%	1.42 µM	> 100 µM	selectivity ratio [7]: 70.4; inhibition [8]: Dose-dependent-effect; inhibition [9]: Dose-dependent-effect; EC50 [11]: 1.73 µM; EC50 [12]: 1.42 µM
Nc1ccc(/N=N/c2ccc(OCc3ccccc3)cc2)c(N)n1	65.3%	7.16 µM	> 100 µM	–
Nc1ccc(/N=N/c2ccc(F)cc2)c(N)n1	64.9%	8.73 µM	> 100 µM	–
Nc1nc(N)c(/N=N/c2ccccc2)cc1Br	51.1%	13.3 µM	> 100 µM	–
Nc1ccc(/N=N/c2ccccc2)c(NC(=O)[C@@H](N)Cc2ccccc2)n1	56.7%	8.77 µM	> 100 µM	–
CN(C)c1ccc(/N=N/c2ccc(N)nc2N)cc1	50.1%	9.52 µM	> 100 µM	–
NCC(=O)Nc1nc(N)ccc1/N=N/c1ccccc1	52.4%	9.28 µM	> 100 µM	–
Nc1ccc(/N=N/c2ccccc2)c(NC(=O)[C@@H]2CCCN2)n1	72.9%	3.78 µM	> 100 µM	–
Nc1ccc(/N=N/c2cccc3c2CCCC3)c(N)n1	71.8%	7.35 µM	78.9 µM	–

From ChEMBL document CHEMBL6109081, “Discovery and optimization of phenazopyridine hydrochloride as novel SARS-CoV-2 RdRp inhibitors” (Eur J Med Chem, 2025)
